Reference: patent US10660877B2 (BRISTOL-MYERS SQUIBB COMPANY, priority 2016, dated 2020)
pIC50: −log10 of the molar value. Where two headings read alike, the source gives them in different places.

Tests used:
human TLR7 = human TLR7 (Homo sapiens (Human), UniProt Q9NYK1); test: TLR7 inhibition reporter assay (HEK-Blue cells, SEAP reporter, gardiquimod stimulation); format: cell-based
human TLR9 = human TLR9 (Homo sapiens (Human), UniProt Q9NR96); test: TLR9 inhibition reporter assay (HEK-Blue cells, SEAP reporter, ODN2006 stimulation);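 further: compounds tested over 0.05 nM to 50 µM, 22 h incubation, inhibition taken as SEAP signal drop from agonist plus DMSO wells toward a known inhibitor control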
[1] = HEK-Blue cells overexpressing human TLR7, gardiquimod 7.5 μM
[2] = read-out: TLR9 IC50, HEK-Blue cells overexpressing human TLR9, ODN2006 5 nM
[3] = HEK-Blue cells, gardiquimod 7.5 μM
[4] = read-out: TLR9 IC50, HEK-Blue cells, ODN2006 5 nM

human TLR7, sequence (Q9NYK1 27-1049): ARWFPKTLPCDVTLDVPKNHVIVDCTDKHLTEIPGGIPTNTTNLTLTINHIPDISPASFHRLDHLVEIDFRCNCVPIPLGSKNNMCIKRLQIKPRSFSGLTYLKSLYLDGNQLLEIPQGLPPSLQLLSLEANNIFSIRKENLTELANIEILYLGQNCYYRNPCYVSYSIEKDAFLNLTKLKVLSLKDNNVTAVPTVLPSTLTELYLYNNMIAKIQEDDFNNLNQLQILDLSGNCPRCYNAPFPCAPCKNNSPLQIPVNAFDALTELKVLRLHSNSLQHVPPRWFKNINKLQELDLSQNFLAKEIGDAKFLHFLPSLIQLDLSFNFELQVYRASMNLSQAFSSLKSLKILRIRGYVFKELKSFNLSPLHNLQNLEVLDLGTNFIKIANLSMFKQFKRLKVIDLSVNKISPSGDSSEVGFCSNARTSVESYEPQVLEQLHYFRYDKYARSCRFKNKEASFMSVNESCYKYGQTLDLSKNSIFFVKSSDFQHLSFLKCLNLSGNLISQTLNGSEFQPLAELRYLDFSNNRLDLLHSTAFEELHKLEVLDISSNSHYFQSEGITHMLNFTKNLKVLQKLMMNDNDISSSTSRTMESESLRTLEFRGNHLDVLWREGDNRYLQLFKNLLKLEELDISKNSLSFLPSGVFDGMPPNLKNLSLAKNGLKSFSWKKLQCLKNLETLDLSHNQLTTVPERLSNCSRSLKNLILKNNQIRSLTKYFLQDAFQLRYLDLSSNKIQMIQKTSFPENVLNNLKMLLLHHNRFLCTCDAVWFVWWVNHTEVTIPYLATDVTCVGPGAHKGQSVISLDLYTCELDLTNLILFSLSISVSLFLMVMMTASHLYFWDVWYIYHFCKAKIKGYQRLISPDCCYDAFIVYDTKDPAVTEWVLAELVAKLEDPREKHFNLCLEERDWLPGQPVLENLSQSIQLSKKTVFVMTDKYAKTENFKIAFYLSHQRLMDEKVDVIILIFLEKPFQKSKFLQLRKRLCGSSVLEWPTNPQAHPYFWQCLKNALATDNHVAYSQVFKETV
human TLR9, sequence (Q9NR96 26-1032): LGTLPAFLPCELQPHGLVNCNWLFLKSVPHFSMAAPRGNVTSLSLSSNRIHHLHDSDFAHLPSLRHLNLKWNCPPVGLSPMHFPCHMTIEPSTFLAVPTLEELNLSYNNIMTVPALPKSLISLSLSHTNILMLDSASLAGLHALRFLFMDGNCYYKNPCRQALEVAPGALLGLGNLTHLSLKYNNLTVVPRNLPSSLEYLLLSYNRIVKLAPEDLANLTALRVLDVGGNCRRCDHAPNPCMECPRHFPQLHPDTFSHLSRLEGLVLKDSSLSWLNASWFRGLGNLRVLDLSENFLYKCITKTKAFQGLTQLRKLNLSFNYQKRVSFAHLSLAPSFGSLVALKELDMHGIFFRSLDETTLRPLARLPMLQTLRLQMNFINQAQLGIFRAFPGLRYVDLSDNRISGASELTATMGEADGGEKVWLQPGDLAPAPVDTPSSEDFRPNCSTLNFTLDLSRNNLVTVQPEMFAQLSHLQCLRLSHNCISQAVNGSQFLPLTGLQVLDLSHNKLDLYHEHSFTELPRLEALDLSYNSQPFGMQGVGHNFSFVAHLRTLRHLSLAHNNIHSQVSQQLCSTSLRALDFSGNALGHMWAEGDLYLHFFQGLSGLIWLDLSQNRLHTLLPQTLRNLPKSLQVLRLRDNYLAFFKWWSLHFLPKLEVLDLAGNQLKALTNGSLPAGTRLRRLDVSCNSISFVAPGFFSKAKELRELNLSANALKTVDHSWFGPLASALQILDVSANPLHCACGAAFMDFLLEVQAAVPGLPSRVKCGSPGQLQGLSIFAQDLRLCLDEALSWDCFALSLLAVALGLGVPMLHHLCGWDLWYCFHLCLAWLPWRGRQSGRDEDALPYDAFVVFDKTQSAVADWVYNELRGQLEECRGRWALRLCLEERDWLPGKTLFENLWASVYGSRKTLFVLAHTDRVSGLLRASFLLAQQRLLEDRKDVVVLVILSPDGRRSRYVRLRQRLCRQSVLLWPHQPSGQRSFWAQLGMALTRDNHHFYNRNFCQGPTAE

Row | pIC50 (human TLR7; [1]) | pIC50 (human TLR9; [2]) | pIC50 (human TLR7; [3]) | pIC50 (human TLR9; [4]) | Structure (SMILES)
1 | 7.55 | 5.83 | – | – | CC(C)c1c(-c2ccnc(C(F)(F)F)c2)[nH]c2ccc(C3CCNCC3)cc12 [Example 6, 3-isopropyl-5-(piperidin-4-yl)-2-(2-(trifluoromethyl)pyridin-4-yl)-1H-indole]
2 | 6.91 | 5.73 | – | – | CC(C)c1c(-c2ccncc2CO)[nH]c2ccc(C3CCNCC3)cc12 [Example 19, (4-(3-isopropyl-5-(piperidin-4-yl)-1H-indol-2-yl)pyridin-3-yl)methanol]
3 | 7.42 | 5.67 | – | – | CC(C)c1c(-c2ccncc2)[nH]c2ccc(C3CCNCC3)cc12 [Example 38, 3-isopropyl-5-(piperidin-4-yl)-2-(pyridin-4-yl)-1H-indole]
4 | 6.56 | 6.26 | – | – | Cc1nc(C)c(C)c(-c2[nH]c3ccc(C4CCNCC4)cc3c2C(C)C)c1C [Example 43, 3-isopropyl-5-(piperidin-4-yl)-2-(2,3,5,6-tetramethylpyridin-4-yl)-1H-indole]
5 | 8.82 | 5.63 | – | – | COc1cc(-c2[nH]c3ccc(C4CCNCC4)cc3c2C(C)C)cc(C)n1 [Example 46, 3-isopropyl-2-(2-methoxy-6-methylpyridin-4-yl)-5-(piperidin-4-yl)-1H-indole]
6 | 7.56 | 6.48 | – | – | CCc1c(-c2ccnc(C)c2)[nH]c2ccc(C3CCNCC3)cc12 [Example 63, 3-ethyl-2-(2-methylpyridin-4-yl)-5-(piperidin-4-yl)-1H-indole]
7 | 8.36 | 5.33 | – | – | Cc1cc(-c2[nH]c3cc(F)c(C4CCNCC4)cc3c2C(C)C)ccn1 [Example 73, 6-fluoro-3-isopropyl-2-(2-methylpyridin-4-yl)-5-(piperidin-4-yl)-1H-indole]
8 | 8.30 | 6.74 | – | – | Cc1cc(-c2[nH]c3cc(C)c(C4CCNCC4)cc3c2C(C)C)ccn1 [Example 75, 3-isopropyl-6-methyl-2-(2-methylpyridin-4-yl)-5-(piperidin-4-yl)-1H-indole]
9 | 9.30 | 6.46 | – | – | Cc1cc(-c2[nH]c3ccc(C4CCNCC4)c(F)c3c2C(C)C)cc(C)n1 [Example 77, 2-(2,6-dimethylpyridin-4-yl)-4-fluoro-3-isopropyl-5-(piperidin-4-yl)-1H-indole]
10 | 8.14 | – | – | – | CCc1c(-c2ccnc(C)c2)[nH]c2ccc(C3CCNCC3)c(C)c12 [Example 82, 3-ethyl-4-methyl-2-(2-methylpyridin-4-yl)-5-(piperidin-4-yl)-1H-indole]
11 | 7.96 | – | – | – | CCc1c(-c2ccnc(C)c2)[nH]c2cc(F)c(C3CCNCC3)c(F)c12 [Example 83, 3-ethyl-4,6-difluoro-2-(2-methylpyridin-4-yl)-5-(piperidin-4-yl)-1H-indole]
12 | – | 4.81 | – | – | Cc1cc(-c2[nH]c3ccc(C4CCN(C(=O)c5ccncc5)CC4)cc3c2C(C)C)cc(C)n1 [Example 113]
13 | 7.99 | 5.88 | – | – | Cc1cc(-c2[nH]c3ccc(C4CCNCC4)cc3c2C(C)C)cc(C2CC2)n1 [Example 478, 2-(2-cyclopropyl-6-methylpyridin-4-yl)-3-isopropyl-5-(piperidin-4-yl)-1H-indole]
14 | 7.01 | 5.47 | – | – | CCc1cc(-c2[nH]c3ccc(C4CCNCC4)cc3c2C(C)C)cc(C)n1 [Example 479, 2-(2-ethyl-6-methylpyridin-4-yl)-3-isopropyl-5-(piperidin-4-yl)-1H-indole]
15 | 7.34 | 5.84 | – | – | CC(C)c1c(-c2ccnc(C3CC3)c2)[nH]c2ccc(C3CCNCC3)cc12 [Example 483, 2-(2-cyclopropylpyridin-4-yl)-3-isopropyl-5-(piperidin-4-yl)-1H-indole]
16 | 7.93 | 5.52 | – | – | COc1cc(-c2[nH]c3ccc(C4CCNCC4)cc3c2C(C)C)ccn1 [Example 485, 3-isopropyl-2-(2-methoxypyridin-4-yl)-5-(piperidin-4-yl)-1H-indole]
17 | 6.39 | 6.28 | – | – | CNCCN1CCC(c2ccc3[nH]c(-c4ccnc(C(F)(F)F)c4)c(C)c3c2)CC1 [Example 747, N-methyl-2-(4-(3-methyl-2-(2-(trifluoromethyl)pyridin-4-yl)-1H-indol-5-yl)piperidin-1-yl)ethan-1-amine]
18 | 6.31 | 7.02 | – | – | CCc1cc(-c2[nH]c3ccc(C4CCN(CCNC)CC4)cc3c2C)ccn1 [Example 748, 2-(4-(2-(2-ethylpyridin-4-yl)-3-methyl-1H-indol-5-yl)piperidin-1-yl)-N-methylethan-1-amine]
19 | 5.32 | 6.19 | – | – | CNCCN1CCC(c2ccc3[nH]c(-c4cc(OCCOC)ncc4F)c(C)c3c2)CC1 [Example 749, 2-(4-(2-(5-fluoro-2-(2-methoxyethoxy)pyridin-4-yl)-3-methyl-1H-indol-5-yl)piperidin-1-yl)-N-methylethan-1-amine]

Row | pIC50 (human TLR7; [1]) | pIC50 (human TLR9; [2]) | pIC50 (human TLR7; [3]) | pIC50 (human TLR9; [4]) | Structure (SMILES)
20 | 6.48 | 6.57 | – | – | CNCCN1CCC(c2ccc3[nH]c(-c4ccnc(F)c4)c(C)c3c2)CC1 [Example 750, 2-(4-(2-(2-fluoropyridin-4-yl)-3-methyl-1H-indol-5-yl)piperidin-1-yl)-N-methylethan-1-amine]
21 | 5.47 | 6.77 | – | – | CCc1c(-c2ccnc(NC)c2)[nH]c2ccc(C3CCN(C4CCN(CC(C)C)CC4)CC3)cc12 [Example 771, 4-(3-ethyl-5-(1′-isobutyl-[1,4′-bipiperidin]-4-yl)-1H-indol-2-yl)-N-methylpyridin-2-amine]
22 | 5.01 | 6.69 | – | – | CCNc1cc(-c2[nH]c3ccc(C4CCN(C5CCN(CC(C)C)CC5)CC4)cc3c2CC)ccn1 [Example 772, N-ethyl-4-(3-ethyl-5-(1′-isobutyl-[1,4′-bipiperidin]-4-yl)-1H-indol-2-yl)pyridin-2-amine]
23 | 5.43 | 6.18 | – | – | CCc1c(-c2ccnc(OC(F)F)c2)[nH]c2ccc(C3CCN(C4CCN(CC(C)C)CC4)CC3)cc12 [Example 774, 2-(2-(difluoromethoxy)pyridin-4-yl)-3-ethyl-5-(1′-isobutyl-[1,4′-bipiperidin]-4-yl)-1H-indole]
24 | 5.25 | 6.42 | – | – | CCc1c(-c2ccnc(OC(F)F)c2)[nH]c2ccc(C3CCN(C4CCN(CC(C)C)CC4)CC3)cc12 [Example 775, 2-(2-(difluoromethoxy)pyridin-4-yl)-3-ethyl-5-(1′-isobutyl-[1,4′-bipiperidin]-4-yl)-1H-indole]
25 | 6.26 | – | – | – | CNCCN1CCC(c2ccc3[nH]c(-c4ccncc4)c(C)c3c2)CC1 [Example 776, N-methyl-2-(4-(3-methyl-2-(pyridin-4-yl)-1H-indol-5-yl)piperidin-1-yl)ethan-1-amine]
26 | 6.29 | – | – | – | CNCCN1CCC(c2ccc3[nH]c(-c4ccnc(OC)c4)c(C)c3c2)CC1 [Example 777, 2-(4-(2-(2-methoxypyridin-4-yl)-3-methyl-1H-indol-5-yl)piperidin-1-yl)-N-methylethan-1-amine]
27 | 7.26 | 6.00 | – | – | CNCCN1CCC(c2ccc3[nH]c(-c4ccnc(OC)c4)c(C(C)C)c3c2)CC1 [Example 783, 2-(4-(3-isopropyl-2-(2-methoxypyridin-4-yl)-1H-indol-5-yl)piperidin-1-yl)-N-methylethan-1-amine]
28 | 7.03 | 6.16 | – | – | CNCCN1CCC(c2ccc3[nH]c(-c4ccnc(OC)c4)c(CC4CC4)c3c2)CC1 [Example 784, 2-(4-(3-(cyclopropylmethyl)-2-(2-methoxypyridin-4-yl)-1H-indol-5-yl)piperidin-1-yl)-N-methylethan-1-amine]
29 | 6.34 | 6.32 | – | – | CCc1c(-c2ccnc(OC)c2)[nH]c2ccc(C3CCN(C4CCNCC4)CC3)cc12 [Example 787, 5-([1,4′-bipiperidin]-4-yl)-3-ethyl-2-(2-methoxypyridin-4-yl)-1H-indole]
30 | 6.45 | 6.21 | – | – | CCc1c(-c2ccnc(OC)c2)[nH]c2ccc(C3CCN(C4CCN(C5CC5)CC4)CC3)cc12 [Example 788, 5-(1′-cyclopropyl-[1,4′-bipiperidin]-4-yl)-3-ethyl-2-(2-methoxypyridin-4-yl)-1H-indole]
31 | 6.21 | 5.92 | – | – | CCc1c(-c2ccncc2)[nH]c2ccc(C3CCN(Cc4cccn4C)CC3)cc12 [Example 805, 3-ethyl-5-(1-((1-methyl-1H-pyrrol-2-yl)methyl)piperidin-4-yl)-2-(pyridin-4-yl)-1H-indole]
32 | 5.92 | 6.44 | – | – | CCc1c(-c2ccncc2)[nH]c2ccc(C3CCN(C4CCN(C)CC4)CC3)cc12 [Example 806, 3-ethyl-5-(1′-methyl-[1,4′-bipiperidin]-4-yl)-2-(pyridin-4-yl)-1H-indole]
33 | – | – | 6.17 | 6.21 | CCc1c(-c2ccncc2)[nH]c2ccc(C3CCN(CCNC)CC3)cc12 [Example 808, 2-(4-(3-ethyl-2-(pyridin-4-yl)-1H-indol-5-yl)piperidin-1-yl)-N-methylethan-1-amine]
34 | – | – | 6.05 | 6.51 | CCc1c(-c2ccncc2)[nH]c2ccc(C3CCN(C4CCN(CC)CC4)CC3)cc12 [Example 809, 3-ethyl-5-(1′-ethyl-[1,4′-bipiperidin]-4-yl)-2-(pyridin-4-yl)-1H-indole]
35 | – | – | 6.24 | 6.21 | COc1cc(-c2[nH]c3ccc(C4CCN(C5CCN(C)CC5)CC4)cc3c2C)ccn1 [Example 838, 2-(2-methoxypyridin-4-yl)-3-methyl-5-(1′-methyl-[1,4′-bipiperidin]-4-yl)-1H-indole]
36 | – | – | 6.16 | 5.35 | CCN1CCC(N2CCC(c3ccc4[nH]c(-c5ccnc(OC)c5)c(C)c4c3)CC2)CC1 [Example 839, 5-(1′-ethyl-[1,4′-bipiperidin]-4-yl)-2-(2-methoxypyridin-4-yl)-3-methyl-1H-indole]
37 | – | – | 6.33 | 6.42 | COc1cc(-c2[nH]c3ccc(C4CCN(C5CCN(C(C)C)CC5)CC4)cc3c2C)ccn1 [Example 840, 5-(1′-isopropyl-[1,4′-bipiperidin]-4-yl)-2-(2-methoxypyridin-4-yl)-3-methyl-1H-indole]
